The values below come from article PMC3386561 (Toxicology in Vitro, 2011).

Data set [1] relates to HepG2-CYP3A4 transfected cells. Kind of data set: Cell viability. The settings on record: for Cytotoxicity (in words): 0-250 μM; for Concentration at which a significant decrease in cell viability begins: p < 0.05 vs 0 μM control. It is filed as cell-based.
The next data set concerns liver. As to conditions: cited from earlier work; for Toxicity / liver damage in rats (in words): ref Patel et al., 2011.
Data set [2] can be described thus: Cell viability. Type of data set: cell-based. As to conditions: human; for viability: % Cell Viability.
Data set [3] can be described thus: Cell viability. It is filed as cell-based. The settings on record: human.
The nature of a further data set: DCPT hydrolysis in HBSS. The settings on record: 250 μM in HBSS, 37 °C, after 24 hr. Type of data set: physicochemical.
Another data set in a line: Solubility in HBSS. It is filed as physicochemical.
A further data set relates to HepG2 wild type cells. Kind of data set: Cell viability. It is filed as cell-based. As to conditions: 24 hr.
The target of data set [4] is T1, CYP3A4 (Homo sapiens, UniProt P08684). Kind of data set: in vitro.
T1 sequence (P08684 whole entry): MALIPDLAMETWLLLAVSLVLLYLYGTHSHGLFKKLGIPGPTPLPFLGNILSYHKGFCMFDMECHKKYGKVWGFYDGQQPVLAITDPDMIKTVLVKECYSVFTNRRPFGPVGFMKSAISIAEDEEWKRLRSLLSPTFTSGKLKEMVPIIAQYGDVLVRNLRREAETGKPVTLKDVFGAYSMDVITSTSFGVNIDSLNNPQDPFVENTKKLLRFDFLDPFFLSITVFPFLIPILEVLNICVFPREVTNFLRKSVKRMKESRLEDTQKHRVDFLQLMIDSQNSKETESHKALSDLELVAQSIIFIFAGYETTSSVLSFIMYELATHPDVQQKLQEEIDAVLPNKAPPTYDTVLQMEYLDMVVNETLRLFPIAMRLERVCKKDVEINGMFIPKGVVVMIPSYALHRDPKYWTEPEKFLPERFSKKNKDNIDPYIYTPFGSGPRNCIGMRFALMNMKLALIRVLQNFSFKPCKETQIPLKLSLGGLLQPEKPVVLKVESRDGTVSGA
Data set [5] concerns the target T1, CYP3A4. Kind of data set: Testosterone 6β-hydroxylation in HepG2 wild type cells. The settings on record: 0-250 μM testosterone, 1 hr.
In data set [6] the target is T1, CYP3A4.

≈ marks a conversion by molar mass, not a printed value. Entries after “also recorded” stand apart in the source; their conditions may differ.

For orientation: CC50 means the concentration that lowers cell viability or growth by half. A higher CC50 goes with better tolerance by the cells. Broadly, the viability is a read-out of living cells in per cent, often relative to untreated cells. As a reminder, the solubility is how much of the substance goes into solution per volume. A low value points to a poorly soluble substance. A word on the Km: it is the substrate concentration at which the rate is half of its maximum.

Turning to `O=C1SCCN1c1cc(Cl)cc(Cl)c1` [2-DCTD, (3,5-dichlorophenyl)-2-thiazolidinone], the Cell viability in [1] (100 μM, 24 hr) worked out at 99.6 ± 4.6%; in data set [1] (250 μM, 24 hr), 37.3 ± 7.1%. Also, in the data set on liver, the “Toxicity / liver damage in rats (in words)” value (from here on “Toxicity / liver damage”) is given as “neither compound produced liver damage”.

With `O=C1CSCN1c1cc(Cl)cc(Cl)c1` [4-DCTD, 3-(3,5-dichlorophenyl)-4-thiazolidinone], the “Cytotoxicity (in words)” value in data set [1] (24 hr) is on record as “not cytotoxic; also recorded: not toxic”. The CC50 at 24 h in the data set “Cell viability [2]” (HepG2-CYP3A4 transfected cells) and in the data set “Cell viability [3]” was more than 250 µM in each case. Besides, in the data set on liver, the “Toxicity / liver damage” value is given as “neither compound produced liver damage”.

With `O=C1CSC(=O)N1c1cc(Cl)cc(Cl)c1` [DCPT, 3-(3,5-dichlorophenyl)-2,4-thiazolidinedione], in the data set “DCPT hydrolysis in HBSS”, the DCPT remaining entry was “less than 50%”. The “Reduction of cell viability” value in [1] (250 μM DCPT, 24 hr) is 80%; in the data set with HepG2 wild type cells (highest concentration (250 μM) DCPT) it was “approximately 60%”. Also, in [1] (24 hr), the “Concentration at which a significant decrease in cell viability begins” value was found to be 100 µM. Also, the “Decrease in cell viability” value in [1] (DEX pretreatment followed by 100 μM DCPT, compared to controls) is “approximately 10%”. Also, the viability in the data set “Cell viability [2]” (100 μM DCPT alone, 24 hr) was 82.6 ± 2.8%; in the data set “Cell viability [2]” (100 μM DEX pretreatment 24 hr, then 100 μM DCPT 24 hr) it was 73 ± 1%; in “Cell viability [2]” (250 μM DCPT alone, 24 hr), 21.3 ± 3.2%. Besides, the CC50 at 24 h in the data set “Cell viability [2]” (HepG2-CYP3A4 transfected cells) was 160 ± 5.9 µM; in “Cell viability [3]”, 233 ± 19.7 µM. The same molecule yielded a solubility in “Solubility in HBSS” (HBSS, aqueous buffer) of 250 µM (≈ 65.5 µg/mL). Moreover, the “Hepatotoxicity in rats (in words)” value in the data set with liver (Fischer 344 rats, ref Kennedy et al., 2003, Patel et al., 2008) is given as “hepatotoxic”.

For the molecule `O=C(O)CSC(=O)Nc1cc(Cl)cc(Cl)c1` [DCTA, S-(3,5-dichlorophenyl)aminocarbonyl thioglycolic acid], the “Concentration at which a significant decrease in cell viability begins” value in [1] (24 hr) was determined as 50 µM. Also, the results for the CC50 at 24 h in the data set “Cell viability [2]” (HepG2-CYP3A4 transfected cells) and in the data set “Cell viability [3]” were 67.3 ± 8.1 µM and 65.3 ± 3.9 µM, respectively. In addition, the “Toxicity / liver damage” value in the data set with liver is “toxic”.

With `O=C=Nc1cc(Cl)cc(Cl)c1` [DPI, 3,5-dichlorophenyl isocyanate], the “Concentration at which a significant decrease in cell viability begins” value in [1] (24 hr) was 100 µM; with HepG2 wild type cells (p < 0.05 vs 0 μM control), 25 µM. The CC50 at 24 h in “Cell viability [2]” and in “Cell viability [3]” was more than 250 µM in each case. Moreover, the viability at 24 h, 250 μM in “Cell viability [2]” and in the data set “Cell viability [3]” was not below 50% each time.

For `CC1SC(=O)N(c2cc(Cl)cc(Cl)c2)C1=O` (centres unmarked) [DPMT, 3-(3,5-dichlorophenyl)-5-methyl-2,4-thiazolidinedione], the “Cytotoxicity (in words)” value in [1] (24 hr) is “no observed decrease in viability; also recorded: non-toxic”. Moreover, the CC50 at 24 h in the data set “Cell viability [2]” (HepG2-CYP3A4 transfected cells) and in the data set “Cell viability [3]” was more than 250 µM in each case. Moreover, in “Solubility in HBSS” (evident at 250 μM), the “Solubility in HBSS (in words)” value is “issues regarding the solubility”. For the same molecule, in the data set with liver, the “Toxicity / liver damage” value is “hepatotoxic”.

As for `CC(=O)N1CCN(c2ccc(OCC3COC(Cn4ccnc4)(c4ccc(Cl)cc4Cl)O3)cc2)CC1` (centres unmarked) [KCZ, ketoconazole, reference compound], in “Cell viability [2]”, the viability turned out to be 106 ± 4.5%.

As for `C[C@]12CC[C@H]3[C@@H](CCC4=CC(=O)CC[C@@]43C)[C@@H]1CC[C@@H]2O` [Testosterone], on CYP3A4 [4], the Km came out at 81.1 ± 5.7 µM. For the same molecule, the 6β-hydroxylation of testosterone result at CYP3A4 [5] is on record as “no detectable”. In addition, the “Vmax of testosterone 6β-hydroxylation” value on CYP3A4 [6] is 92.7 ± 13.3 pmol/min/mg protein.
